Results from patent US12077503B2, “Substituted cyclic amides and their use as herbicides” (FMC CORPORATION, priority 2015, dated 2024).

Legend:
Assay type in all cases: in vivo
[1] = test system: ivy-leaved morning glory (Ipomoea hederacea); assay: Test G Pre-Emergence Protocol; details: Ipomoea, pre-emergence, 312 h, evaluated after 13 days; for pest or weed control at 15.625 g/ha: 15.625 g ai/ha, read-out: Morning-glory, Ivy-leaved damage rating (100=total damage to plant; 0=no damage to plant); for pest or weed control at 62.5 g/ha: 62.5 g ai/ha, 100=total damage to plant, 0=no damage to plant, read-out: plant damage rating, Morningglory, Ivy-leaved; for pest or weed control at 250 g/ha: 250 g ai/ha, read-out: Morningglory, Ivy-leaved damage rating (100=total damage to plant; 0=no damage to plant)
In short: (§1)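 Spraying took place one day after sowing, at 15.625, 62.5 or 250 g/ha, using an acetone/water (50:50) spray solution containing 0.5% Tween 20. Plants were kept under glasshouse conditions (24/16 °C, 14 h light, 65% humidity, watered twice daily), and injury was rated 0–100 at day 13.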

corn (Zea mays) [2] = assay: Test G Pre-Emergence Protocol; details: Zea mays, pre-emergence, 312 h, evaluated after 13 days; for plant injury at 15.625 g/ha: 15.625 g ai/ha; for plant injury at 15.625 g/ha / plant injury at 250 g/ha: read-out: Corn damage rating (100=total damage to plant; 0=no damage to plant); for plant injury at 62.5 g/ha: 62.5 g ai/ha, 100=total damage to plant, 0=no damage to plant, read-out: plant damage rating, Corn; for plant injury at 250 g/ha: 250 g ai/ha
In short: as §1

[3] = test system: velvetleaf (Abutilon theophrasti); assay: Test G Pre-Emergence Protocol; details: Abutilon theophrasti, pre-emergence, 312 h, evaluated after 13 days; for pest or weed control at 15.625 g/ha: 15.625 g ai/ha; for pest or weed control at 15.625 g/ha / pest or weed control at 250 g/ha: read-out: Velvetleaf damage rating (100=total damage to plant; 0=no damage to plant); for pest or weed control at 62.5 g/ha: 62.5 g ai/ha, 100=total damage to plant, 0=no damage to plant, read-out: plant damage rating, Velvetleaf; for pest or weed control at 250 g/ha: 250 g ai/ha
In short: as §1

[4] = test system: redroot pigweed (Amaranthus retroflexus); assay: Test G Pre-Emergence Protocol; details: Amaranthus retroflexus, pre-emergence, 312 h, evaluated after 13 days; for pest or weed control at 15.625 g/ha: 15.625 g ai/ha; for pest or weed control at 15.625 g/ha / pest or weed control at 250 g/ha: read-out: Pigweed, Redroot damage rating (100=total damage to plant; 0=no damage to plant); for pest or weed control at 62.5 g/ha: 62.5 g ai/ha, 100=total damage to plant, 0=no damage to plant, read-out: plant damage rating, Pigweed, Redroot; for pest or weed control at 250 g/ha: 250 g ai/ha
In short: as §1

[5] = test system: giant foxtail (Setaria faberi); assay: Test G Pre-Emergence Protocol; details: Setaria faberi, pre-emergence, 312 h, evaluated after 13 days; for pest or weed control at 15.625 g/ha: 15.625 g ai/ha; for pest or weed control at 15.625 g/ha / pest or weed control at 250 g/ha: read-out: Foxtail, Giant damage rating (100=total damage to plant; 0=no damage to plant); for pest or weed control at 62.5 g/ha: 62.5 g ai/ha, 100=total damage to plant, 0=no damage to plant, read-out: plant damage rating, Foxtail, Giant; for pest or weed control at 250 g/ha: 250 g ai/ha
In short: as §1

[6] = test system: barnyardgrass (Echinochloa crus-galli); assay: Test G Pre-Emergence Protocol; details: Echinochloa crus-galli, pre-emergence, 312 h, evaluated after 13 days; for pest or weed control at 15.625 g/ha: 15.625 g ai/ha, read-out: Barnyard grass damage rating (100=total damage to plant; 0=no damage to plant); for pest or weed control at 62.5 g/ha: 62.5 g ai/ha, 100=total damage to plant, 0=no damage to plant, read-out: plant damage rating, Barnyardgrass; for pest or weed control at 250 g/ha: 250 g ai/ha, read-out: Barnyardgrass damage rating (100=total damage to plant; 0=no damage to plant)
In short: as §1

[7] = test system: ivy-leaved morning glory (Ipomoea hederacea); assay: Test G Post-Emergence Protocol; details: Ipomoea, post-emergence, 312 h; for pest or weed control at 15.625 g/ha: 15.625 g ai/ha, evaluated after 13 days (100=total damage to plant; 0=no damage to plant), read-out: Morningglory, Ivy-leaved damage rating; for pest or weed control at 62.5 g/ha: 62.5 g ai/ha, read-out: Morningglory, Ivy-leaved damage rating (100=total damage to plant; 0=no damage to plant); for pest or weed control at 62.5 g/ha / pest or weed control at 250 g/ha: evaluated after 13 days; for pest or weed control at 250 g/ha: 250 g ai/ha, read-out: damage to plant, Morningglory, Ivy-leaved (100=total damage to plant; 0=no damage to plant)
In short: (§2)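 Post-emergence herbicidal damage, scored visually 0–100 at 13 days. Application at 15.625, 62.5 or 250 g/ha onto 8-day-old plants grown under glasshouse control.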

corn (Zea mays) [8] = assay: Test G Post-Emergence Protocol; details: Zea mays, post-emergence, 312 h; for plant injury at 15.625 g/ha: 15.625 g ai/ha, evaluated after 13 days (100=total damage to plant; 0=no damage to plant), read-out: Corn damage rating; for plant injury at 62.5 g/ha: 62.5 g ai/ha, read-out: Corn damage rating (100=total damage to plant; 0=no damage to plant); for plant injury at 62.5 g/ha / plant injury at 250 g/ha: evaluated after 13 days; for plant injury at 250 g/ha: 250 g ai/ha, read-out: damage to plant, Corn (100=total damage to plant; 0=no damage to plant)
In short: as §2

[9] = test system: velvetleaf (Abutilon theophrasti); assay: Test G Post-Emergence Protocol; details: Abutilon theophrasti, post-emergence, 312 h; for pest or weed control at 15.625 g/ha: 15.625 g ai/ha, evaluated after 13 days (100=total damage to plant; 0=no damage to plant), read-out: Velvetleaf damage rating; for pest or weed control at 62.5 g/ha: 62.5 g ai/ha, read-out: Velvetleaf damage rating (100=total damage to plant; 0=no damage to plant); for pest or weed control at 62.5 g/ha / pest or weed control at 250 g/ha: evaluated after 13 days; for pest or weed control at 250 g/ha: 250 g ai/ha, read-out: damage to plant, Velvetleaf (100=total damage to plant; 0=no damage to plant)
In short: as §2

[10] = test system: redroot pigweed (Amaranthus retroflexus); assay: Test G Post-Emergence Protocol; details: Amaranthus retroflexus, post-emergence, 312 h; for pest or weed control at 15.625 g/ha: 15.625 g ai/ha, evaluated after 13 days (100=total damage to plant; 0=no damage to plant), read-out: Pigweed, Redroot damage rating; for pest or weed control at 62.5 g/ha: 62.5 g ai/ha, read-out: Pigweed, Redroot damage rating (100=total damage to plant; 0=no damage to plant); for pest or weed control at 62.5 g/ha / pest or weed control at 250 g/ha: evaluated after 13 days; for pest or weed control at 250 g/ha: 250 g ai/ha, read-out: damage to plant, Pigweed, Redroot (100=total damage to plant; 0=no damage to plant)
In short: as §2

[11] = test system: giant foxtail (Setaria faberi); assay: Test G Post-Emergence Protocol; details: Setaria faberi, post-emergence, 312 h; for pest or weed control at 15.625 g/ha: 15.625 g ai/ha, evaluated after 13 days (100=total damage to plant; 0=no damage to plant), read-out: Foxtail, Giant damage rating; for pest or weed control at 62.5 g/ha: 62.5 g ai/ha, read-out: Foxtail, Giant damage rating (100=total damage to plant; 0=no damage to plant); for pest or weed control at 62.5 g/ha / pest or weed control at 250 g/ha: evaluated after 13 days; for pest or weed control at 250 g/ha: 250 g ai/ha, read-out: damage to plant, Foxtail, Giant (100=total damage to plant; 0=no damage to plant)
In short: as §2

[12] = test system: barnyardgrass (Echinochloa crus-galli); assay: Test G Post-Emergence Protocol; details: Echinochloa crus-galli, post-emergence, 312 h; for pest or weed control at 15.625 g/ha: 15.625 g ai/ha, evaluated after 13 days (100=total damage to plant; 0=no damage to plant), read-out: Barnyardgrass damage rating; for pest or weed control at 62.5 g/ha: 62.5 g ai/ha, read-out: Barnyardgrass damage rating (100=total damage to plant; 0=no damage to plant); for pest or weed control at 62.5 g/ha / pest or weed control at 250 g/ha: evaluated after 13 days; for pest or weed control at 250 g/ha: 250 g ai/ha, read-out: damage to plant, Barnyardgrass (100=total damage to plant; 0=no damage to plant)
In short: as §2

| Structure (SMILES) | pest or weed control at 15.625 g/ha [1] [%] | pest or weed control at 62.5 g/ha [1] [%] | pest or weed control at 250 g/ha [1] [%] | plant injury at 15.625 g/ha (corn (Zea mays) [2]) [%] | plant injury at 62.5 g/ha (corn (Zea mays) [2]) [%] | plant injury at 250 g/ha (corn (Zea mays) [2]) [%] | pest or weed control at 15.625 g/ha [3] [%] | pest or weed control at 62.5 g/ha [3] [%] | pest or weed control at 250 g/ha [3] [%] | pest or weed control at 15.625 g/ha [4] [%] | pest or weed control at 62.5 g/ha [4] [%] | pest or weed control at 250 g/ha [4] [%] | pest or weed control at 15.625 g/ha [5] [%] | pest or weed control at 62.5 g/ha [5] [%] | pest or weed control at 250 g/ha [5] [%] | pest or weed control at 15.625 g/ha [6] [%] | pest or weed control at 62.5 g/ha [6] [%] | pest or weed control at 250 g/ha [6] [%] | pest or weed control at 15.625 g/ha [7] [%] | pest or weed control at 62.5 g/ha [7] [%] | further results |
| --- | --- | --- | --- | --- | --- | --- | --- | --- | --- | --- | --- | --- | --- | --- | --- | --- | --- | --- | --- | --- | --- |
| Cc1ccc(NC(=O)[C@H]2C(=O)N(C)C[C@@H]2c2ccc(C(F)(F)F)cc2)nc1 (racemic) [Compound 1484] | 0 | 0 | 0 | 20 | 10 | 30 | 0 | 0 | 0 | 0 | 0 | 20 | 10 | 10 | 30 | 0 | 10 | 30 | 0 | 0 | pest or weed control at 250 g/ha [7]: 0%; plant injury at 15.625 g/ha (corn (Zea mays) [8]): 20%; plant injury at 62.5 g/ha (corn (Zea mays) [8]): 0%; plant injury at 250 g/ha (corn (Zea mays) [8]): 30%; pest or weed control at 15.625 g/ha [9]: 0%; pest or weed control at 62.5 g/ha [9]: 0%; pest or weed control at 250 g/ha [9]: 10%; pest or weed control at 15.625 g/ha [10]: 10%; pest or weed control at 62.5 g/ha [10]: 0%; pest or weed control at 250 g/ha [10]: 20%; pest or weed control at 15.625 g/ha [11]: 10%; pest or weed control at 62.5 g/ha [11]: 10%; pest or weed control at 250 g/ha [11]: 30%; pest or weed control at 15.625 g/ha [12]: 20%; pest or weed control at 62.5 g/ha [12]: 20%; pest or weed control at 250 g/ha [12]: 40% |
| Cc1ccnc(NC(=O)[C@@H]2C(=O)N(C)C[C@H]2c2ccc(C(F)(F)F)cc2)n1 (racemic) [Compound 1557] | 0 | 0 | 0 | 0 | 0 | 10 | 0 | 0 | 0 | 0 | 0 | 0 | 0 | 0 | 20 | 0 | 0 | 10 | 0 | 0 | pest or weed control at 250 g/ha [7]: 0%; plant injury at 15.625 g/ha (corn (Zea mays) [8]): 0%; plant injury at 62.5 g/ha (corn (Zea mays) [8]): 0%; plant injury at 250 g/ha (corn (Zea mays) [8]): 20%; pest or weed control at 15.625 g/ha [9]: 0%; pest or weed control at 62.5 g/ha [9]: 0%; pest or weed control at 250 g/ha [9]: 10%; pest or weed control at 15.625 g/ha [10]: 0%; pest or weed control at 62.5 g/ha [10]: 0%; pest or weed control at 250 g/ha [10]: 0%; pest or weed control at 15.625 g/ha [11]: 0%; pest or weed control at 62.5 g/ha [11]: 0%; pest or weed control at 250 g/ha [11]: 10%; pest or weed control at 15.625 g/ha [12]: 0%; pest or weed control at 62.5 g/ha [12]: 20%; pest or weed control at 250 g/ha [12]: 20% |
| CN1C[C@H](c2ccc(C(F)(F)F)cc2)[C@@H](C(=O)Nc2ccc(F)c(C(F)(F)F)c2)C1=O (racemic) [Compound 1443] | 0 | 0 | 0 | 0 | 0 | 0 | 0 | 0 | 0 | 0 | 0 | 0 | 0 | 0 | 0 | 0 | 0 | 0 | 0 | 0 | pest or weed control at 250 g/ha [7]: 0%; plant injury at 15.625 g/ha (corn (Zea mays) [8]): 0%; plant injury at 62.5 g/ha (corn (Zea mays) [8]): 0%; plant injury at 250 g/ha (corn (Zea mays) [8]): 0%; pest or weed control at 15.625 g/ha [9]: 0%; pest or weed control at 62.5 g/ha [9]: 0%; pest or weed control at 250 g/ha [9]: 0%; pest or weed control at 15.625 g/ha [10]: 0%; pest or weed control at 62.5 g/ha [10]: 0%; pest or weed control at 250 g/ha [10]: 0%; pest or weed control at 15.625 g/ha [11]: 0%; pest or weed control at 62.5 g/ha [11]: 0%; pest or weed control at 250 g/ha [11]: 0%; pest or weed control at 15.625 g/ha [12]: 0%; pest or weed control at 62.5 g/ha [12]: 0%; pest or weed control at 250 g/ha [12]: 0% |
